Test results published in patent US11266086B2, “Efficient plant transformation method” (Wisconsin Alumni Research Foundation, priority 2018, dated 2022).

How the values were obtained:
Type in all cases: in vivo
[1] = test system: soybean VAEs; test: Particle bombardment of soybean VAEs with Dicot Bomb 9 and glyphosate selection; conditions: for TF / Rooting Shoots: BOMB 9, glyphosate selection
Protocol: For particle bombardment experiments, gold-DNA “bead prep” was prepared by first washing 50 mg 0.6 um gold microcarriers (BioRad part #1652262) in 1 ml 100% ethanol and sonicating for 1 min 45 kHz. Gold was pelleted by centrifugation at 5000 rpm in microfuge (˜2300×g) and ethanol removed. Gold was then re-suspended in 1 ml 100% ethanol and stored at −20 C until use. To precipitate DNA onto beads, the 50 mg gold/1 ml ethanol stock was sonicated for 1 min 45 kHz. 42 ul of this stock was transferred to an Eppendorf tube, then pelleted by centrifugation at 2500 rpm for 10 seconds, after which ethanol was removed. 500 uL sterile water was added and mixture sonicated 1 min 45 kHz. Gold was again pelleted by centrifugation at 2500 rpm for 10 seconds and water removed. 25 ul sterile water was then added, followed by sonication for 1 min 45 kHz. 2.6, 1.3, or 0.65 ug VS225 DNA was added, then sterile water to bring volume up to 245 ul. 250 ul cold 2.5 M CaCl2 was added, followed by 50 ul 0.1 M spermidine. Solution was mixed by low speed vortexing. Tube was incubated on ice for approximately 1 hour with gentle inversions every 5-10 minutes. DNA/gold was pelleted at 1000 rpm (˜100×g) for 2 min and supernatant removed. Pellet was then washed with 1 ml 100% EtOH w/pipette tip, then pelleted again at 1000 rpm (˜100×g) for 2 min and supernatant removed 36 ul 100% EtOH was added to tube and gold completely re-suspended with low-speed vortexing. Bead prep was stored at −20 C until used, with 5 ul used per bombardment. This corresponds to 360, 180, or 90 ng DNA per blast; 290 ug gold per blast (1.2, 0.6, or 0.3 ng DNA per ug gold).
For blasting Soybean VAEs, meristem explants were incubated in 20% PEG4000 with 60 mg/L Captan and 30 mg/L Bravo for 1 hour, rinsed thoroughly, and pre-cultured overnight on WCIC EJW1 media at 28 C 16/8 photoperiod.
After preculture, Soybean VAEs were targeted on a 12% xantham gum holding media, 20 per plate, with meristems oriented upward. Prior to particle bombardment on the PDS-1000 helium gun, stop screens (BioRad part 1652336), 1350 psi rupture disks (BioRad 1652330), and macrocarrier holders (BioRad part 1652322) were sanitized for 1 min in 70% EtOH. Carrier sheets (BioRad part 1652335) were sanitized for 1 min in isopropanol. 1350 psi rupture disk was placed into the rupture disk retaining cap and screwed into the gas acceleration chamber. Stop screen was placed in the brass adjustable nest. 5 uL bead prep was deposited on the center of each carrier sheet loaded onto the macrocarrier holder and allowed to air dry. Macrocarrier holder was then turned over to place above retaining screen on brass nest. Macrocarrier cover lid was screwed on and completed macrocarrier launch assembly was placed on shelf directly under rupture disk. Gap distance between rupture disk and launch assembly was approximately 1 cm. Lid from target plate was removed and plate was placed on shelf 2 (2nd shelf from macrocarrier launch assembly) which is approximately 6 cm from assembly. Helium tank, PDS-1000, and vacuum were all turned on. Door was closed and vacuum applied to ˜27-28 In Hg. Fire button was depressed and held down until blast was complete. Vacuum was then released and target plate removed.
After blasting, soybean VAEs were detargeted onto WCIC EJW1 media and allowed to rest overnight at 28 C 16/8 photoperiod. Explants were then placed on WCIC Spectinomycin Selection Medium and placed in 28 C 16/8 photoperiod.
Alternate selectable markers for soybean VAE transformation—We applied soybean VAE technology to glyphosate selection, and were able to recover T0 plants from particle bombardment using Dicot Bomb 9 (FIG. 29) and the Goosegrass EPSP; where the explants were selected on 75 uM glyphosate; then rooted on 25 uM glyphosate. […] Our glyphosate selection work focused on reducing this cytokinin load during the preculture/rest phase. The T0 rooted shoots tested positive for GUS and RFP (tdTomato).

[2] = test system: soybean VAEs; test: Agrobacterium-mediated transformation of soybean meristem explants / VAEs with TDZ in co-culture
Protocol: Soybean seeds were surface sanitized in 20% Clorox (from concentrated Clorox with 8.25% sodium hypochlorite) for 5 minutes, rinsed 5× with sterile RO water, and then primed by allowing them to sit for 2 hrs at room temperature. Seeds were then imbibed in WCIC Bean Germination Media (BGM) overnight. Meristem explants were prepared the next day by removing seed coats and cotyledons from the seed using either a manual process or in a wet mill consisting of a series of rollers and spray nozzles. Meristem explants were then either dried under a variety of conditions, or used fresh. Drying of explants was performed in either a Laminar Flow Hood (LFH) with explants resting on a filter paper exposed to air, or in a BryAir seed dryer (model VFB-3-E-DXA) on filter paper. For internal moisture determination, 0.5-1 g of dried material was placed in a 103 C oven for 16-18 hours, contents allowed to cool, then re-weighed. For use in transformation, dried explants—designated as soy VAEs (value added explants) were incubated 1-2 hours at room temperature in 20% PEG4000 (dissolved in sterile distilled water) supplemented with 60 mg/L Captan fungicide and 30 mg/L Bravo (Daconil) fungicide. Explants were then rinsed 5-6× with sterile distilled water and inoculated with Agrobacterium. […] FIGS. 3A and 3B show VAEs (3A) as compared to explants directly from just dry seed (3B).
Agrobacterium inoculum was prepared under laminar flow hood from overnight cultures derived from 20% glycerol stocks stored at −80 C. Glycerol stocks were allowed to thaw, and approximately 50 ul stock was added to 50 ml LB with 50 mg/L kanamycin (GV3101 strain); or 250 ul stock to 50 ml LB with 50 ppm kanamycin and 100 ppm carbenicillin (AGL1 strain). The VS225 binary construct with pVS1 origin of replication conferred resistance to kanamycin, and had aadA, gus, and cas9 genes on its T-DNA. The pWI-1000 binary construct with pVS1 origin of replication conferred resistance to kanamycin, and had aadA and gus on its T-DNA. The pWI-1000 dsRED binary construct with pVS1 origin of replication conferred resistance to kanamycin, and had aadA, gus, and rfp (dsRED) on its T-DNA. Cultures were grown overnight at 28° C. 200 RPM on orbital shaker (Innova 4400 incubator shaker). The next morning optical densities of cultures at 660 nm (OD660) were checked (Hach DR5000™ Spectrophotometer) under laminar flow and then centrifuged at 2619×g for 20 min (H6000A rotor on Sorvall® RC3B centrifuge). Pelleted bacteria was re-suspended in WCIC INO media under laminar flow, diluted to OD660 0.3-0.45, and incubated at room temperature 150 RPM until used (VWR orbital shaker). In some experiments acetosyringone was added to inoculum at 100 uM to help induce the vir operon.
Meristem explants were inoculated under laminar flow in inverted PlantCon® (approximately 25 ml inoculum per PlantCon®) (MP Biomedicals, LLC Cat. 26-722-06) and sonicated for 20 s, 45+/−2 kHz (L&R Sonicator Quantrex 450) in a 0.1% Triton X-100 water bath (Triton X-100 from Sigma #9002-93-1). Inoculated explants were incubated with inoculum for additional 30 min at room temperature at 75 RPM. Excess inoculum was then removed, and explants co-cultured in PlantCons® with 2.5 ml WCIC INO media supplemented with 50 mg/L nystatin, 10 mg/L TBZ, and 95 uM lipoic acid at 23 C 16/8 photoperiod. In some experiments this co-culture media was further supplemented with 1 mg/L TDZ in attempt to multiply meristematic cells and possibly suppress apical dominance. In some experiments acetosyringone was added to inoculum and/or co-culture medium at 100 uM as an inducing agent for the virulence cascade in the vir operon.
After co-culture (3-5 days) explants were transferred to 200 ppm spectinomycin WCIC B5 media. When using the GV3101 strain we supplemented this selection media with 200-400 mg/L carbenicillin to knock Agrobacterium overgrowth down. […]

[3] = test system: non-inoculated soybean VAEs; test: Spectinomycin selection titration on non-inoculated soybean VAEs; conditions: at 5 weeks
Excerpt: We ran a titration of spectinomycin selection levels on non-inoculated soybean VAEs, and could see visible bleaching and suppression of shooting and rooting as low as 50 ppm at 5 weeks (FIG. 5).

O=C(Nc1ccccc1)Nc1cnns1 [TDZ, thidiazuron]
TF ([1]; preculture EJW1 (1 ppm TDZ), rest EJW0 (no PGRs)): 0.4% | Rooting Shoots ([1]; preculture EJW1 (1 ppm TDZ), rest EJW0 (no PGRs), 264 initial explants): 1 | TF ([1]; preculture and rest EJW3 (0.5 ppm TDZ)): 0.5% | Rooting Shoots ([1]; preculture and rest EJW3 (0.5 ppm TDZ), 387 initial explants): 2 | TF ([2]; VAE batch S16b, 5 h dry in 20 C Bryair to 8.3% moisture, 3025N, TDZ in co-culture): 0.6% | # T0 Plants ([2]; VAE batch S16b, 5 h dry in 20 C Bryair to 8.3% moisture, 3025N, TDZ in co-culture, 162 explants): 1 | TF ([2]; VAE batch S18, 6 h dry in 20 C Bryair to 27% moisture, LD10-30087, TDZ in co-culture): 1.4% | # T0 Plants ([2]; VAE batch S18, 6 h dry in 20 C Bryair to 27% moisture, LD10-30087, TDZ in co-culture, 74 explants): 1 | TF ([2]; VAE batch S19, 6 h dry in 20 C Bryair to 21% moisture, LD10-30092, TDZ in co-culture): 3.3% | # T0 Plants ([2]; VAE batch S19, 6 h dry in 20 C Bryair to 21% moisture, LD10-30092, TDZ in co-culture, 91 explants): 3 | TF ([2]; VAE batch S20, 6 h dry in 20 C Bryair to 18% moisture, LD10-30094, TDZ in co-culture): 1.2% | # T0 Plants ([2]; VAE batch S20, 6 h dry in 20 C Bryair to 18% moisture, LD10-30094, TDZ in co-culture, 85 explants): 1 | TF ([2]; VAE batch S26, 6 h dry in 20 C Bryair, W82, TDZ in co-culture (Table 12)): 4.4% | # T0 Plants ([2]; VAE batch S26, 6 h dry in 20 C Bryair, W82, TDZ in co-culture, 182 explants (Table 12)): 8 | TF ([2]; VAE batch S27, 5 h dry in 20 C Bryair, 3849N, TDZ in co-culture): 2.1% | # T0 Plants ([2]; VAE batch S27, 5 h dry in 20 C Bryair, 3849N, TDZ in co-culture, 289 explants): 6 | TF ([2]; W82 VAEs, 20 C Bryair 5.5 h, 1 ppm TDZ in co-culture, second set of replicates): 3.2% | # T0 Plants ([2]; W82 VAEs, 20 C Bryair 5.5 h, 1 ppm TDZ in co-culture, second set of replicates, 126 explants): 4 | TF ([2]; W82 VAEs, 20 C Bryair 6 h, 1 ppm TDZ in co-culture, first set of replicates (Table 13b)): 5.5% | # T0 Plants ([2]; W82 VAEs, 20 C Bryair 6 h, 1 ppm TDZ in co-culture, first set of replicates (Table 13b), 182 explants): 10 | TF ([2]; W82 VAEs, LFH 20.5 h, 1 ppm TDZ in co-culture, second set of replicates): 2.1% | # T0 Plants ([2]; W82 VAEs, LFH 20.5 h, 1 ppm TDZ in co-culture, second set of replicates, 144 explants): 3 | TF ([2]; W82 VAEs, various drying conditions, 1 ppm TDZ in co-culture, summary of replicates): 3.8% | # R0 Plants ([2]; W82 VAEs, various drying conditions, 1 ppm TDZ in co-culture, summary of replicates, 452 explants): 17 | TF ([2]; freshly excised Williams82, fresh sample of explants dried to generate S17 series, TDZ 1 mg/L in co-culture): 12.6% | # T0 Plants ([2]; freshly excised Williams82, fresh sample of explants dried to generate S17 series, TDZ 1 mg/L in co-culture, 95 explants): 12 | effect of TDZ in co-culture on transformation ([2]; freshly excised soy meristem explants (S17 series), TDZ 1 mg/L in co-culture): apparent benefit

CN[C@@H]1[C@H](O)[C@H](NC)[C@H]2O[C@@]3(O)C(=O)C[C@@H](C)O[C@H]3O[C@@H]2[C@H]1O [spectinomycin]
lowest spectinomycin level with visible bleaching and suppression of shooting and rooting [3]: 50 ppm

O=C(O)CNCP(=O)(O)O [glyphosate]
plant recovery with glyphosate selection ([1]; preculture and resting media conditions of the spectinomycin protocol (EJW1 with TDZ), particle bombardment): yielded no plants

c1ccc(CNc2ncnc3nc[nH]c23)cc1 [BAP, 6-benzylaminopurine]
TF ([1]; preculture and rest OR (3 ppm BAP)): 0.3% | Rooting Shoots ([1]; preculture and rest OR (3 ppm BAP), 380 initial explants): 1
